Experimental data taken from article PMC11149917, “Translational and Therapeutic Evaluation of RAS-GTP Inhibition by RMC-6236 in RAS-Driven Cancers” (Cancer Discovery, 2024).

Tested on: PRISM panel of 845 cancer cell lines
Experiment: PRISM assay
Format: cell-based, human
Protocol: The PRISM cell set comprised 845 cell lines representing more than 45 lineages (see Supplementary Table S1 for cell line information), which largely overlapped with the Cancer Cell Line Encyclopedia; https://portals.broadinstitute.org/ccle). Cell lines were grown in RPMI without phenol red and supplemented with 10% or 20% FBS for adherent and suspended lines, respectively. Parental cell lines were stably infected with a unique 24-nucleotide DNA barcode via lentiviral transduction and blasticidin selection. After selection, barcoded cell lines were expanded and subjected to quality control (Mycoplasma contamination test, an SNP test for confirming cell line identity, and barcode ID confirmation). Approved cell lines were then pooled (20–25 cell lines per pool) based on doubling time similarity and frozen in assay-ready vials.
RMC-6236 was added to 384-well plates at 8-point concentration with 3-fold dilutions in triplicate. These assay-ready plates were then seeded with the thawed cell line pools. Adherent cell pools were plated at 1,250 cells per well, whereas suspension and mixed adherent/suspension pools were plated at 2,000 cells per well. Treated cells were incubated for 5 days, and then lysed. Lysate plates were collapsed together prior to barcode amplification and detection.
Each cell line's unique barcode is located in the 3′UTR of the blasticidin-resistance gene and therefore is expressed as mRNA. Total mRNA was captured using magnetic particles that recognize polyA sequences. Captured mRNA was reverse-transcribed into cDNA and then the sequence containing the unique PRISM barcode was amplified using PCR. Finally, Luminex beads that recognize the specific barcode sequences in the cell set were hybridized to the PCR products and detected using a Luminex scanner which reports the signal as a median fluorescent intensity (MFI).
• Each detection well contained 10 control barcodes in increasing abundances as spike-in controls. For each plate, we first create a reference profile by calculating the median of the log2(MFI) values across negative control wells for each of these spiked-in barcodes. • For each well, a monotonic smooth p-spline was fitted to map the spike-in control levels to the reference profile. Next, we transform the log2(MFI) for each cell barcode using the fitted spline to allow well-to-well comparisons by correcting for amplification and detection artifacts. • Next, the separability between negative and positive control treatments was assessed. In particular, we calculated the error rate of the optimum simple threshold classifier between the control samples for each cell line and plate combination. The error rate is a measure of the overlap of the two control sets and was defined as error = (FP + FN)/n, where FP is false positives, FN is false negatives, and n is the total number of controls. A threshold was set between the distributions of positive and negative control log2(MFI) values (with everything below the threshold said to be positive and above said to be negative) such that this value is minimized. Additionally, we also calculated the dynamic range of each cell line. […] Additionally, any cell line that had less than 2 passing replicates was also omitted for the sake of reproducibility. Finally, we computed viability by normalizing with respect to the median negative control for each plate.
For every gene with nonsilent mutations in at least four cell lines, we compared the AUC values between cells with and without those mutations using a t test. This analysis was carried out for (i) the full data set; (ii) excluding cell lines with nonsilent KRAS mutations; and (iii) excluding cell lines that have either KRAS or NRAS nonsilent mutations.

## CCn1c(-c2cc(N3CCN(C)CC3)cnc2[C@H](C)OC)c2c3cc(ccc31)-c1csc(n1)C[C@H](NC(=O)[C@H]1C[C@@H]1C)C(=O)N1CCC[C@H](N1)C(=O)OCC(C)(C)C2 [RMC-6236]
LS_AUTONOMIC_GANGLIA
  RMC-6236: RevMed PRISM: AUC: 1
MCAS_OVARY, KRAS p.G12D
  RMC-6236: RevMed PRISM: AUC: 0.5822
MDAMB361_BREAST
  RMC-6236: RevMed PRISM: AUC: 0.8463
MG63_BONE
  RMC-6236: RevMed PRISM: AUC: 0.9083
MIAPACA2_PANCREAS, KRAS p.G12C
  RMC-6236: RevMed PRISM: AUC: 0.3158
MKN1_STOMACH
  RMC-6236: RevMed PRISM: AUC: 0.8375
MMNK1_BILIARY_TRACT
  RMC-6236: RevMed PRISM: AUC: 1
MOLP2_HAEMATOPOIETIC_AND_LYMPHOID_TISSUE
  RMC-6236: RevMed PRISM: AUC: 0.8941
NCIH1373_LUNG, KRAS p.G12C
  RMC-6236: RevMed PRISM: AUC: 0.5175
NCIH1623_LUNG
  RMC-6236: RevMed PRISM: AUC: 0.9336
NCIH1792_LUNG, KRAS p.G12C
  RMC-6236: RevMed PRISM: AUC: 0.4194
NCIH1944_LUNG, KRAS p.G13D
  RMC-6236: RevMed PRISM: AUC: 0.6749
NCIH2110_LUNG
  RMC-6236: RevMed PRISM: AUC: 0.7265
NCIH2170_LUNG
  RMC-6236: RevMed PRISM: AUC: 0.8266
NOZ_LIVER, KRAS p.G12V
  RMC-6236: RevMed PRISM: AUC: 0.4128
NP3_CENTRAL_NERVOUS_SYSTEM
  RMC-6236: RevMed PRISM: AUC: 0.8074
NUGC4_STOMACH
  RMC-6236: RevMed PRISM: AUC: 0.5513
OE21_OESOPHAGUS
  RMC-6236: RevMed PRISM: AUC: 0.7641
OSRC2_KIDNEY
  RMC-6236: RevMed PRISM: AUC: 0.9503
OVKATE_OVARY
  RMC-6236: RevMed PRISM: AUC: 0.9428
PL21_HAEMATOPOIETIC_AND_LYMPHOID_TISSUE, KRAS p.A146V
  RMC-6236: RevMed PRISM: AUC: 0.4905
PSN1_PANCREAS, KRAS p.G12R
  RMC-6236: RevMed PRISM: AUC: 0.3382
RDES_BONE
  RMC-6236: RevMed PRISM: AUC: 0.8941
RERFLCKJ_LUNG
  RMC-6236: RevMed PRISM: AUC: 0.8815
RKN_SOFT_TISSUE, KRAS p.G12V
  RMC-6236: RevMed PRISM: AUC: 0.3219
RL_HAEMATOPOIETIC_AND_LYMPHOID_TISSUE
  RMC-6236: RevMed PRISM: AUC: 0.8075
SKES1_BONE
  RMC-6236: RevMed PRISM: AUC: 0.8643
SKGT2_STOMACH
  RMC-6236: RevMed PRISM: AUC: 0.6916
SKHEP1_LIVER
  RMC-6236: RevMed PRISM: AUC: 0.8776
SNU601_STOMACH, KRAS p.G12D
  RMC-6236: RevMed PRISM: AUC: 0.4515
SNU1076_UPPER_AERODIGESTIVE_TRACT
  RMC-6236: RevMed PRISM: AUC: 0.4839
SNU1079_BILIARY_TRACT
  RMC-6236: RevMed PRISM: AUC: 0.8678
SR786_HAEMATOPOIETIC_AND_LYMPHOID_TISSUE
  RMC-6236: RevMed PRISM: AUC: 0.7042
SUDHL4_HAEMATOPOIETIC_AND_LYMPHOID_TISSUE
  RMC-6236: RevMed PRISM: AUC: 0.8448
SUDHL8_HAEMATOPOIETIC_AND_LYMPHOID_TISSUE
  RMC-6236: RevMed PRISM: AUC: 1
SUIT2_PANCREAS, KRAS p.G12D
  RMC-6236: RevMed PRISM: AUC: 0.6849
SW626_LARGE_INTESTINE, KRAS p.G12V
  RMC-6236: RevMed PRISM: AUC: 0.3255
SW1271_LUNG, NRAS p.Q61R
  RMC-6236: RevMed PRISM: AUC: 0.6986
TC106_BONE
  RMC-6236: RevMed PRISM: AUC: 0.7285
TE8_OESOPHAGUS
  RMC-6236: RevMed PRISM: AUC: 0.7048
TT_THYROID
  RMC-6236: RevMed PRISM: AUC: 1
U2973_HAEMATOPOIETIC_AND_LYMPHOID_TISSUE
  RMC-6236: RevMed PRISM: AUC: 1
UMUC6_URINARY_TRACT
  RMC-6236: RevMed PRISM: AUC: 0.4621
UMUC10_URINARY_TRACT
  RMC-6236: RevMed PRISM: AUC: 0.7756
UMUC11_URINARY_TRACT
  RMC-6236: RevMed PRISM: AUC: 0.952
VAL_HAEMATOPOIETIC_AND_LYMPHOID_TISSUE
  RMC-6236: RevMed PRISM: AUC: 0.8667
YD10B_UPPER_AERODIGESTIVE_TRACT
  RMC-6236: RevMed PRISM: AUC: 0.5303
YD38_UPPER_AERODIGESTIVE_TRACT
  RMC-6236: RevMed PRISM: AUC: 0.4476
[…]02ER_ENDOMETRIUM
  RMC-6236: RevMed PRISM: AUC: 0.8144
Mutant copy number gained KRAS
  Median AUC (PRISM): 0.54
wild-type KRAS cell lines
  Median AUC (PRISM): 0.78
wild-type copy number gained KRAS
  Median AUC (PRISM): 0.84
